These results are taken from PubChem BioAssay (NCI).

Several values for one entry are separate records, joined by “and”; a condition that tells them apart may be missing. Identical values can stand only once.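 Cells were grown in 96-well plates and exposed to each compound for 48 hours at five concentrations; endpoints were interpolated linearly between bracketing concentrations, or set to the highest concentration if not reached. Here, GI50 denotes the concentration required for 50% inhibition of growth. At the TGI there is no net growth.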

Among the test systems are K-562 leukemia; OVCAR-3 ovarian; RPMI-8226 leukemia; SF-268 CNS; SK-MEL-2 melanoma; SK-MEL-28 melanoma; SW-620 colon; UACC-257 melanoma; HS 578T breast.
Common to all, as to experiment: DTP human tumour cell line panel, 48 h

One may read the TGI as the concentration at which net growth stops. Low values mean more potent growth arrest, high ones less potent growth arrest. With `CC1(C)CCC(Sc2ccccc2)O1` (centres undefined), the TGI with K-562 leukemia, in the assay with OVCAR-3 ovarian, in the assay on RPMI-8226 leukemia, in the assay on SF-268 CNS, in the assay with SK-MEL-2 melanoma and with SK-MEL-28 melanoma was over 100 µM in each case. Also, the TGI in the assay with SW-620 colon and with UACC-257 melanoma was over 100 µM each time.
For `O=[N+]([O-])c1ccc(C2=Nc3ccccc3S(=O)C(c3ccccc3)C2)cc1` (centres undefined), the TGI in the assay on K-562 leukemia is 34.5 µM; with OVCAR-3 ovarian it was 37.3 µM; in the assay on RPMI-8226 leukemia, 29.6 µM; with SF-268 CNS, over 100 µM; in the assay with SK-MEL-2 melanoma it was over 100 µM; in the assay with SK-MEL-28 melanoma, 48.1 µM. The total growth inhibition concentration (TGI) turned out to be 52.8 µM with SW-620 colon and 55.3 µM in the assay with UACC-257 melanoma.
`CN(C)CCNC(=O)c1cccc2c1nc(-c1ccc(F)cc1)c1ccccc12`: the TGI in the assay with K-562 leukemia came to 11.7 µM; with OVCAR-3 ovarian, 18.7 µM; in the assay on SF-268 CNS, 21.8 µM; in the assay on SK-MEL-2 melanoma, 22.3 µM; with SK-MEL-28 melanoma, 20.3 µM; with SW-620 colon it was 14.8 µM. This compound also gave a TGI with UACC-257 melanoma of 11.2 µM.
For `CC(C)(C)c1cc(CCC(=O)Nc2ccc(Cl)cc2)[nH]c(=S)n1`, the TGI in the assay with K-562 leukemia, in the assay on OVCAR-3 ovarian, in the assay on RPMI-8226 leukemia, in the assay on SF-268 CNS, in the assay on SK-MEL-2 melanoma and in the assay on SK-MEL-28 melanoma was over 100 µM in each case. In addition, the TGI with SW-620 colon and with UACC-257 melanoma was over 100 µM in each case.
In general, GI50 refers to the concentration that inhibits growth by half. With `CCOC(=O)c1c(-c2ccccc2)[n+](=O)c2cc(Cl)c(Cl)cc2n1[O-]`, the GI50 was 20.1 µM with HS 578T breast; 3.29 µM with K-562 leukemia; 1800 nM in the assay with OVCAR-3 ovarian; 0.285 µM in the assay with RPMI-8226 leukemia; 16.6 µM in the assay with SF-268 CNS; 18.9 µM with SK-MEL-2 melanoma. The GI50 in the assay with SK-MEL-28 melanoma was 13.7 µM; in the assay on SW-620 colon, 16.5 µM; in the assay with UACC-257 melanoma, 2610 nM. Besides, the TGI in the assay on HS 578T breast is 49.9 µM; in the assay with K-562 leukemia, over 100 µM; in the assay on OVCAR-3 ovarian, 4.41 µM; in the assay with RPMI-8226 leukemia, 1.51 µM; in the assay on SF-268 CNS, 33.9 µM; in the assay on SK-MEL-2 melanoma it was over 100 µM. In addition, the TGI in the assay with SK-MEL-28 melanoma amounted to 36.3 µM; with SW-620 colon, 37.1 µM; in the assay on UACC-257 melanoma it was 8.41 µM.
Regarding `Cc1ccc(NC(=O)CCCC(=O)CC(=O)c2ccc(Br)cc2)cc1`, the TGI in the assay on K-562 leukemia, in the assay with OVCAR-3 ovarian, in the assay on RPMI-8226 leukemia, with SF-268 CNS, in the assay on SK-MEL-2 melanoma and in the assay with SK-MEL-28 melanoma was over 100 µM throughout. For the same compound, the concentration for total growth inhibition (TGI) with SW-620 colon and with UACC-257 melanoma was over 100 µM in each case.
In the case of `CC(=O)C1CCN(c2ccccc2)C1` (centres undefined), the TGI with K-562 leukemia, with OVCAR-3 ovarian, with SF-268 CNS, in the assay with SK-MEL-2 melanoma, with SK-MEL-28 melanoma and in the assay on SW-620 colon was over 100 µM throughout. Also, the TGI in the assay with UACC-257 melanoma is over 100 µM.
As to `CCOC(=O)C(C)(NC(=O)c1ccc(NCc2ccc3nc(NC(=O)c4ccccc4)nc(NC(=O)c4ccccc4)c3c2)cc1)C(=O)OCC`, the concentration for total growth inhibition (TGI) in the assay on OVCAR-3 ovarian was 22.1 µM; in the assay on RPMI-8226 leukemia, over 100 µM; in the assay with SF-268 CNS, 28.7 µM; with SK-MEL-2 melanoma it was 34.7 µM; with SK-MEL-28 melanoma, 27.6 µM; with SW-620 colon, over 100 µM. Moreover, the TGI with UACC-257 melanoma was 36.4 µM.
As for `COC1C2C[C@@H](O)CCC2C(C(=O)OCCl)C[C@H]1O` (some centres undefined), the TGI in the assay on K-562 leukemia, in the assay with OVCAR-3 ovarian, in the assay with RPMI-8226 leukemia, with SF-268 CNS, with SK-MEL-2 melanoma and in the assay on SK-MEL-28 melanoma was over 100 µM each time. Further, the concentration for total growth inhibition (TGI) in the assay on SW-620 colon and in the assay with UACC-257 melanoma was over 100 µM each time.
`O=C(O/N=C1\CCCC\C1=C/c1ccccc1)c1ccc([N+](=O)[O-])cc1`: the TGI with K-562 leukemia, in the assay with OVCAR-3 ovarian, in the assay with RPMI-8226 leukemia, in the assay on SF-268 CNS, in the assay on SK-MEL-2 melanoma and in the assay on SK-MEL-28 melanoma was over 100 µM in each case. For the same compound, the TGI with SW-620 colon was over 100 µM.
For `Cn1c(CBr)nc2c1C(=O)c1nc(CBr)[nH]c(=O)c1C2=O`, the TGI in the assay with K-562 leukemia, with RPMI-8226 leukemia, with SF-268 CNS, in the assay on SK-MEL-28 melanoma and with SW-620 colon was over 100 µM in each case.
`CCCNC(=O)Nc1c([N+](=O)[O-])cc(C(F)(F)F)cc1[N+](=O)[O-]`: the TGI in the assay on K-562 leukemia was over 100 µM; in the assay with OVCAR-3 ovarian, 61.2 µM; in the assay on RPMI-8226 leukemia, over 100 µM; in the assay with SF-268 CNS, over 100 µM; with SK-MEL-2 melanoma, over 100 µM; with SK-MEL-28 melanoma, over 100 µM. Also, the TGI in the assay with SW-620 colon and in the assay on UACC-257 melanoma was over 100 µM in each case.
For the compound `CC(C)(CN1C(=O)C(Cl)=C(Cl)C1=O)CN1C(=O)C(Cl)=C(Cl)C1=O`, the TGI in the assay on K-562 leukemia turned out to be 7.1 µM; in the assay with OVCAR-3 ovarian, 23.2 µM; in the assay on RPMI-8226 leukemia, 4.96 µM; in the assay on SF-268 CNS, 41.5 µM; with SK-MEL-2 melanoma, 41 µM; in the assay with SK-MEL-28 melanoma, 20 µM. The total growth inhibition concentration (TGI) was found to be 15.3 µM with SW-620 colon and 29 µM with UACC-257 melanoma.
`O=S1(=O)N2CN3CN(C2)CN1C3`: the TGI in the assay on K-562 leukemia was > 31.6 µM and 169 µM; in the assay on RPMI-8226 leukemia, 56.6 µM and 124 µM; in the assay on SF-268 CNS it was > 87.5 µM and 133 µM; with SK-MEL-2 melanoma it was 473 µM; in the assay with SK-MEL-28 melanoma it was 225 µM; with SW-620 colon, 57.8 µM and 113 µM. This compound showed a TGI in the assay on UACC-257 melanoma of 94.3 µM. In addition, the GI50 in the assay on RPMI-8226 leukemia was 33.7 µM; in the assay on SF-268 CNS, 31.8 µM; in the assay with SK-MEL-28 melanoma it was 40.6 µM.
Take `C[C@H]1CC[P+](Cc2ccccc2)(c2ccccc2)C1` (some centres undefined): the TGI in the assay on K-562 leukemia, with OVCAR-3 ovarian, in the assay on RPMI-8226 leukemia, with SK-MEL-2 melanoma, in the assay on SK-MEL-28 melanoma and in the assay with SW-620 colon was over 100 µM in each case. This compound came in with a TGI in the assay on UACC-257 melanoma of 80.2 µM.
